{
  "source": "patent US20120208781A1",
  "about": "“AMINOGLYCOSIDE DOSING REGIMENS” (Achaogen, Inc., priority 2009, published 2012)",
  "key": {"[1]": {"system": "P. aeruginosa (PA)", "assay": "MIC, broth microdilution, Brooklyn hospital isolates: P. aeruginosa", "type": "cell-based", "settings": "Pseudomonas aeruginosa; PA (n = 33)", "procedure": "(§1) In another study, the activity of Compound 1 against a collection of contemporary Gram-negative bacteria was determined. Unique patient isolates of P. aeruginosa (PA), A. baumannii (AB), K. pneumoniae (KP), E. coli (EC), and Enterobacter spp. (EB) from prior surveys at 16 Brooklyn, N.Y. hospitals were selected based on resistance patterns. The majority of isolates were fingerprinted by automated ribotyping. MICs were performed by broth microdilution. PCR was used to identify aminoglycoside-modifying enzymes (AMEs) in AB and KP and the KPC gene in Enterobacteriaceae (EN). The expression of the efflux genes mexA, C, E and X in PA, and adeB in AB was assessed by real-time RT-PCR."}, "[2]": {"system": "E. coli (EC)", "assay": "MIC, broth microdilution, Brooklyn hospital isolates: E. coli", "type": "cell-based", "settings": "Escherichia coli; EC (n = 32)", "procedure": "as §1"}, "[3]": {"system": "5 major human cytochrome P450 isoforms (CYPs)", "assay": "Inhibition of cytochrome P450 isoforms in vitro", "type": "in vitro ADME"}, "[4]": {"system": "Enterobacteriaceae (EN)", "assay": "MIC, broth microdilution, Brooklyn hospital isolates: Enterobacteriaceae subsets (amikacin-resistant, KPC+)", "type": "cell-based", "procedure": "as §1"}, "[5]": {"assay": "First-in-human phase 1 study: urine levels of Compound 1", "type": "in vivo", "settings": "Cohort 4 (15 mg/kg)", "procedure": "Pooled urine samples for PK analysis were obtained with the single dose and first and last multiple-dose.\nThe levels of Compound 1 present in the urine of Cohort 4 patients during the 24 hours following administration of the third multi-dose was also examined. […] Perhaps of even greater significance, the concentration of Compound 1 achieved in the urine was at least 1 mg/ml immediately following administration, and remained over 0.1 mg/ml for 12 hours."}, "[6]": {"assay": "In vitro stability in plasma, microsomes and hepatocytes", "type": "in vitro ADME", "settings": "liver microsomes and hepatocytes", "procedure": "Bioanalytical data analyses were carried out using Analyst software (version 1.4.1, Applied Biosystems, Toronto, ON, Canada). […] PK parameters were determined by noncompartmental analysis using WinNonLin. Plasma protein binding was determined using equilibrium dialysis. In vitro stability was determined using commercially available plasma, microsomes and hepatocytes."}, "[7]": {"assay": "Prediction of human plasma levels and half-life of Compound 1 from mouse, rat and dog data (allometric scaling)", "settings": "humans", "procedure": "The PK profile of Compound 1 supports use of high doses in short infusions, administered once-daily to achieve high Cmax and AUC, which are important for both efficacy and safety.\nIn the phase 1 clinical studies described herein, Compound 1 was administered over a short infusion time period of 10 minutes. Based upon allometric scaling of the mouse, rat and dog nonclinical data, the Cmax associated with longer infusion time periods was predicted, as summarized in Table 21. As shown, longer infusion time periods are associated with lower Cmax, resulting in a lower Cmax to AUC ratio."}, "[8]": {"system": "cochlear hair cells", "assay": "Cytocochleogram analysis in 28-day guinea pig ototoxicity model", "type": "in vivo, guinea pigs", "procedure": "Following euthanasia and whole body intravascular perfusion with 4% paraformaldehyde, the temporal bones of the left and right ears were removed. Gross middle ear assessments were performed using a dissecting microscope. […] Following gross middle ear assessment, the cochleas of the left ear were fixed by intrascalar perfusion with 4% paraformaldehyde. Cochlea tissues of both ears were placed in 4% paraformaldehyde for approximately 1 hour. Tissues were then transferred to 0.5% paraformaldehyde, stored refrigerated, and shipped on gel packs to the Kresge Hearing Research Institute, Ann Arbor, Mich., for further processing and cytocochleogram analysis.\nThese guinea pig ototoxicity studies also included microscopic analysis of surgically dissected cochleas from each animal to assess hair cell damage (cytocochleograms). The underlying cause of aminoglycoside related hearing loss is damage to the hair cells of the auditory system after significant accumulation of aminoglycosides in the inner ear. In the cochlea, drug-induced hair cell loss typically progresses from the basal to the apical turns of the cochlea. Perception of high-frequency sounds, a function of the basal hair cells, is lost first; perception of low-frequency sounds, a function of the more apical hair cells, is the last to be lost (Selimoglu, E., Curr Pharm Des. 2007; 13(1):119-26). For obvious reasons, it is impractical to obtain cytocochleograms from each animal prior to dosing, and some hair cell loss is usually observed in control (vehicle dosed) animals in these guinea pig studies. This variability makes it difficult to determine whether hair cell loss observed post-treatment is due to the drug treatment, especially mild hair cell loss, […]"}, "[9]": {"assay": "Phase 1 study 15 mg/kg/day once daily for five days: safety, BUN and Cr", "type": "in vivo, human", "settings": "healthy subjects", "procedure": "An additional randomized, double-blind, placebo-controlled study was performed to assess the safety and pharmacokinetics of Compound 1 following IV administration to healthy adult volunteers according to a high dose, short course regimen of 15 mg/kg/day of Compound 1 administered once daily for five days. Compound 1 was formulated as a sterile solution at a concentration of 50 mg/mL in 10 mL glass vials for intravenous (IV) administration (“Compound 1 Injection”). Eight healthy subjects were randomized to receive either Compound 1 Injection or placebo administered IV by 10 minute infusion daily for five days. Seven subjects received 5 doses and one received 3 doses (early withdrawal for personal reasons).\nBUN and creatine (Cr) were assessed daily for each of the five days prior to dosing and at day 5 post-dosing to assess renal function following this high dose, short course regimen."}, "[10]": {"settings": "15 mg/kg/day IV once daily for five days, one line per Subject ID, 15 mg/kg/day"}},
  "note": "Several values for one entry are separate records, joined by “and”; a condition that tells them apart may be missing. Equal values may be shown once. Read-outs that look alike come from different tables or passages of the source.",
  "data": [
    {"smiles": "CN[C@@H]1[C@@H](O)[C@@H](O[C@@H]2[C@@H](O)[C@H](O[C@H]3OC(CNCCO)=CC[C@H]3N)[C@@H](N)C[C@H]2NC(=O)[C@@H](O)CCN)OC[C@]1(C)O", "note": "[Compound 1, 6′-(2-Hydroxy-ethyl)-1-(4-amino-2(S)-hydroxy-butyryl)-sisomicin]", "values": [
      {"measurement": "MIC50", "setting": "[1]", "result": 8, "unit": "µg/mL"},
      {"measurement": "MIC90", "setting": "[1]", "result": 16, "unit": "µg/mL"},
      {"measurement": "MIC50", "setting": "[2]", "result": 1, "unit": "µg/mL"},
      {"measurement": "MIC90", "setting": "[2]", "result": 2, "unit": "µg/mL"},
      {"measurement": "inhibition of the 5 major human CYPs", "setting": "[3]", "result": "did not inhibit"},
      {"measurement": "MIC50", "setting": "[4]", "result": 0.5, "unit": "µg/mL"},
      {"measurement": "MIC90", "setting": "[4]; Amikacin-Resistant-EN (n = 35)", "result": 2, "unit": "µg/mL"},
      {"measurement": "MIC50", "setting": "[4]; KPC +− EN (n = 24)", "result": 0.5, "unit": "µg/mL"},
      {"measurement": "MIC90", "setting": "[4]; KPC +− EN (n = 24)", "result": 4, "unit": "µg/mL"},
      {"measurement": "urine concentration immediately following administration", "setting": "[5]", "result": "at least 1 mg/ml"},
      {"measurement": "urine concentration maintained for 12 hours", "setting": "[5]", "result": "over 0.1 mg/ml"},
      {"measurement": "administered Compound 1 excreted within 24 hours (upper estimate)", "setting": "[5]; after third multi-dose", "result": "about 90%"},
      {"measurement": "average fraction excreted in urine in an unchanged form over 24 hours", "setting": "[5]; after third multi-dose", "result": 75, "unit": "%"},
      {"measurement": "in vitro stability", "setting": "[6]", "result": "stable"},
      {"measurement": "predicted Cmax with longer infusion time periods", "setting": "[7]", "result": "lower Cmax"},
      {"measurement": "animals with a few spikes of minimal hair cell loss", "setting": "[8]; guinea pigs, 8 mg/kg", "result": "2/8"},
      {"measurement": "animals with minimal to moderate outer hair cell loss at the apical end or middle region", "setting": "[8]; guinea pigs, 30 mg/kg", "result": "3/8"},
      {"measurement": "animals with large loss of outer hair cells across the length of the cochlea", "setting": "[8]; guinea pigs, 80 mg/kg", "result": "One of 8"},
      {"measurement": "animals with minimal loss of both inner and outer hair cells at the mid-cochlea or apical end", "setting": "[8]; guinea pigs, 80 mg/kg", "result": "2/8"},
      {"measurement": "dose-response of hair cell loss", "setting": "[8]; guinea pigs, 8, 30, 80 mg/kg", "result": "no dose-response of hair cell loss"},
      {"measurement": "severity of adverse events", "setting": "[9]; 15 mg/kg/day IV 10 minute infusion, five days", "result": "mild to moderate"},
      {"measurement": "Serum Creatine, Pre-dose", "setting": "[9]; 15 mg/kg/day IV once daily for five days, fifth pre-dose column, one line per Subject ID, 15 mg/kg/day", "result": "0.7 mg/dL (2×) and 0.8 mg/dL and 1.2 mg/dL (2×) and 1.1 mg/dL and 1.0 mg/dL"},
      {"measurement": "BUN, Post-dose 5", "setting": "[9]; [10]", "result": "13 mg/dL (3×) and 14 mg/dL and 9 mg/dL and 20 mg/dL and 15 mg/dL"},
      {"measurement": "BUN, Pre-dose 1", "setting": "[9]; [10]", "result": "9 mg/dL (2×) and 10 mg/dL and 13 mg/dL and 5 mg/dL and 15 mg/dL and 19 mg/dL and 14 mg/dL"},
      {"measurement": "BUN, Pre-dose 2", "setting": "[9]; [10]", "result": "18 mg/dL and 16 mg/dL and 19 mg/dL and 17 mg/dL (2×) and 8 mg/dL and 20 mg/dL and 22 mg/dL"},
      {"measurement": "BUN, Pre-dose 3", "setting": "[9]; [10]", "result": "13 mg/dL and 18 mg/dL (2×) and 19 mg/dL and 17 mg/dL and 9 mg/dL and 15 mg/dL and 14 mg/dL"},
      {"measurement": "BUN, Pre-dose 4", "setting": "[9]; [10]", "result": "13 mg/dL and 14 mg/dL (2×) and 12 mg/dL and 8 mg/dL and 17 mg/dL and 19 mg/dL and 16 mg/dL"},
      {"measurement": "BUN, Pre-dose 5", "setting": "[9]; [10]", "result": "16 mg/dL (3×) and 13 mg/dL and 14 mg/dL and 11 mg/dL and 15 mg/dL"},
      {"measurement": "Serum Creatine, Post-dose 5", "setting": "[9]; [10]", "result": "0.6 mg/dL (2×) and 1.0 mg/dL and 0.7 mg/dL and 1.1 mg/dL and 0.9 mg/dL (2×)"},
      {"measurement": "Serum Creatine, Pre-dose 1", "setting": "[9]; [10]", "result": "0.7 mg/dL (2×) and 0.6 mg/dL (2×) and 0.9 mg/dL (2×) and 1.2 mg/dL and 1.0 mg/dL"},
      {"measurement": "Serum Creatine, Pre-dose 2", "setting": "[9]; [10]", "result": "0.7 mg/dL and 0.6 mg/dL (2×) and 0.9 mg/dL (2×) and 1.1 mg/dL (2×) and 1.3 mg/dL"},
      {"measurement": "Serum Creatine, Pre-dose 3", "setting": "[9]; [10]", "result": "0.6 mg/dL (3×) and 0.7 mg/dL and 1.0 mg/dL and 1.1 mg/dL and 0.9 mg/dL and 0.8 mg/dL"},
      {"measurement": "Serum Creatine, Pre-dose 4", "setting": "[9]; [10]", "result": "0.6 mg/dL (4×) and 1.0 mg/dL and 1.2 mg/dL and 0.9 mg/dL (2×)"},
      {"measurement": "changes in BUN or Cr at day 5 post-dosing", "setting": "[9]; 15 mg/kg/day IV, five days", "result": "no substantial changes in either BUN or Cr"},
      {"measurement": "tolerability", "setting": "[9]; 15 mg/kg/day IV, five days", "result": "well-tolerated"},
      {"measurement": "ototoxicity or nephrotoxicity", "setting": "[9]; 15 mg/kg/day IV, five days, through the treatment period", "result": "No evidence of ototoxicity or nephrotoxicity"}
    ]}
  ]
}
